# Paper PMC12604490, “Dual immunomodulatory and antileishmanial potential of TLR7/8 agonists against Leishmania donovani” (Infection and Immunity, 2025)
# Key:
# L. infantum = system: L. infantum; design: method as in PMID 33851916; conditions: read-out: IC50 (antiamastigote) against L. infantum; cited from earlier work
# [1] = system: intracellular L. donovani amastigotes; assay: Antiamastigote activity in infected RAW 264.7 macrophages (Giemsa count, 48 h); type: cell-based; conditions: Leishmania donovani, RAW264.7, intracellular amastigotes in RAW 264.7 macrophages, mean ± SD
# Method: The macrophage cell growth was evaluated daily, and the cells were subcultured into a new flask containing fresh cell culture medium once they reached about 80%–90% confluency. […] Macrophages (2 × 10^4/mL) were plated on round coverslips placed in 24-well plates for 24 hours in a CO2 incubator (5% CO2) at 37°C. The coverslips were washed thrice with serum-free medium to remove the non-adherent cells. […] Infected macrophages were incubated with different concentrations of TLR7/8 agonists for 48 hours. After 48 hours, the coverslips were washed with phosphate-buffered saline (PBS), dried, fixed with chilled methanol, Giemsa-stained, and examined under a light microscope. A minimum of 200 macrophages were counted per coverslip to determine the number of amastigotes.
# [2] = system: L. donovani promastigotes; assay: In vitro antipromastigote activity (trypan blue count, 48 h); type: cell-based, Leishmania donovani MHOM/IN/80/DD8; conditions: Leishmania donovani, mean ± SD
# Method: M199 was added with 0.2% sodium bicarbonate and 10% heat-inactivated fetal bovine serum (FBS; Biowest, France) + antibiotics (gentamycin and streptomycin) by serial subcultures after every 48-72 hours by transferring 0.5-1.0 mL of culture supernatant in fresh medium and kept in a biological oxygen demand (BOD) incubator ([20]). […] The percentage growth inhibition was calculated using the following formulas: Percentage viability=No. of live cells in treated well/No. of live cells in blank well×100 Percentage growth inhibition=100 - percentage viability. The IC50 values were calculated using SPSS software, version 25 ([22]).
# [3] = Cytotoxicity on HeLa cells (MTT, 48 h); type: cell-based, human; conditions: human, HeLa cells
# Method: HeLa cells (human cervical epithelial cell line) were grown in RPMI-1640 (HiMedia) with 10% FBS and cultured at 37°C (5% CO2). The cells were evaluated daily using an inverted microscope for any contamination and subcultured after reaching confluency ([21]).
# (§1) The cytotoxicity studies were performed using an immune cell line (RAW 264.7 macrophage) and non-immune epithelial cell line (HeLa) by 3-(4,5-dimethylthiazol-2-yl)-2,5-diphenyltetrazolium bromide (MTT) assay. A total of 7,000–10,000 cells/well were supplemented with different concentrations (2–64 μg/mL) of TLR7/8 agonists and incubated for 48 hours. MTT (1 mg/mL) (Hi-Media) was added to each well and kept for 4 hours. The formazan crystals formed were dissolved in 100 µL of dimethyl ulfoxide (DMSO), and absorbance at 550 nm was recorded using a microreader. AmB, MF, and Resiquimod were used as reference drugs. The percentage of cytotoxicity was calculated as [(absorbance of treated well − absorbance of blank) / (absorbance of untreated well − absorbance of blank)] × 100. The CC50 value was calculated with SPSS software. The SI of TLR7/8 agonists was obtained by calculating the ratio of CC50 (RAW 264.7 macrophage and HeLa cells) and IC50 (antipromastigote and antiamastigotes) ([21], [23]).
# TLR8 = system: TLR8; design: method as in PMID 38741265, PMID 39411538; conditions: Table 1; previously reported; cited from earlier work
# TLR7 = system: TLR7; design: method as in PMID 38741265, PMID 39411538; conditions: Table 1, previously reported, cited from earlier work; for EC50: read-out: TLL7 EC50
# [4] = Cytotoxicity on RAW 264.7 macrophages (MTT, 48 h); type: cell-based; conditions: mouse, RAW 264.7 macrophages
# Method: (§2) To evaluate the cytotoxicity and antiamastigote assay, RAW 264.7 macrophages were cultured in Dulbecco’s modified Eagle medium (HiMedia, India), 10% heat-inactivated fetal bovine serum (FBS, Biowest) and cultured at 37°C (5% CO2). The macrophage cell growth was evaluated daily, and the cells were subcultured into a new flask containing fresh cell culture medium once they reached about 80%–90% confluency.
# as §1
# [5] = system: Leishmania in peritoneal macrophages; design: method as in PMID 30991111; conditions: cited from earlier work
# RAW 264.7 macrophages [6] = assay: NO production in RAW 264.7 macrophages (Griess reagent); type: cell-based; conditions: for NO production: RAW 264.7 macrophages, 48 hour treatment at the IC50 value, nitrite by Griess; for NO production in unstimulated macrophages: RAW macrophages without LPS stimulation, in words
# Method: After 24 hours, non-adherent cells were removed, and adherent cells were incubated with TLR7/8 agonist for 48 hours in the presence or absence of LPS (1 µg/mL) (Biosciences) to evaluate both unstimulated and LPS-stimulated macrophage responses. After 48 hours, the culture supernatant (100 µL) was collected and mixed with an equal volume of Griess reagent (1% sulfanilamide and 0.1% naphthlethylenediamine dihydrochloride in 2.5% phosphoric acid) (Sigma), and absorbance was measured in a microreader at 540 nm. Nitrite concentration was evaluated from a standard curve generated with sodium nitrite ([25]).
# [7] = system: L. donovani promastigotes; assay: Cell cycle progression in promastigotes (propidium iodide, flow cytometry); type: cell-based, Leishmania donovani; conditions: promastigotes incubated with the IC50 for 48 hours; untreated 12.0% ± 1.05%
# Method: For analysis of the promastigote cell cycle, 2 × 10^6 promastigotes/mL were briefly incubated with the IC50 of TLR7/8 agonists in a 24-well culture plate. After 48 hours, promastigotes were washed with PBS and fixed with 70% (vol/vol) chilled ethanol. After 1 hour of incubation, parasites were washed with PBS, and the pellet was incubated with 500 µL of DNase-free RNase (200 µg/mL) (Thermo Fisher) for 1 hour. Afterward, parasites were stained with PI dye (50 µg/mL), and the percentage of parasites in the sub-G0/G1 phase was analyzed using FACS Calibur flow cytometry ([20]).
# [8] = system: L. donovani promastigotes; assay: ROS in Leishmania promastigotes (H2DCFDA, flow cytometry); type: cell-based, Leishmania donovani; conditions: promastigotes incubated with the IC50 value for 48 hours; untreated 295 ± 1.52
# Method: Induction of ROS by promastigotes after exposure to TLR7/8 agonists was done using a cell-permeable fluorescent dye H2DCFDA (Thermo Fisher). […] After this given time period, parasites were harvested and washed thrice with PBS and resuspended in 10 µM H2DCFDA for 20 minutes in the dark at 37°C. The fluorescence was measured by using FACS Calibur flow cytometry ([24]).
# RAW 264.7 macrophages [9] = assay: Cytotoxicity on RAW 264.7 macrophages (MTT, 48 h); type: cell-based; conditions: MTT, 48 hours, mean ± SD
# Method: as §2, §1
# [10] = Fig 4 heat map, mean CC50, unit inferred, read-out: CC50, heat map, Hela Cells
# [11] = MTT, 48 hours, mean ± SD, read-out: HeLa cell CC50
# [12] = MTT, 48 hours, mean ± SD, read-out: RAW macrophage CC50
# [13] = Fig 4 heat map, mean CC50, unit inferred, read-out: CC50, heat map, Raw Macrophages
Compound,IC50 [1] [µg/mL],IC50 [2] [µg/mL],IC50 (L. infantum) [nM],"CC50 at 48 h [3, 10] [µg/mL]","CC50 at 48 h [3, 11] [µg/mL]",TLR8 EC50 (TLR8),TLL7 EC50 (TLR7),"CC50 at 48 h [4, 12] [µg/mL]",EC50 (TLR7) [nM],IC50 against Leishmania in peritoneal macrophages [5] [µg/mL],EC50 (TLR8) [nM],NO production (RAW 264.7 macrophages [6]) [µM],NO production in unstimulated macrophages (RAW 264.7 macrophages [6]),percentage of parasites in sub-G0/G1 phase [7],"ROS, mean fluorescence intensity (MFI) [8]","CC50 at 48 h [4, 13] [µg/mL]",RAW macrophage CC50 (RAW 264.7 macrophages [9]) [µg/mL]
CC(=O)OC1C(O)CC(OC2C(O)CC(OC3C(O)CC(OC4CCC5(C)C(CCC6C5CCC5(C)C(C7=CC(=O)OC7)CCC65O)C4)OC3C)OC2C)OC1C (stereo not drawn) [β-acetyl-digitoxin],,,20900 ± 2600,,,,,,,,,,,,,,
CCCCc1nc2c(N)nc3ccccc3c2n1Cc1ccc(Cl)cc1 [compound 2],5.6 ± 0.62,3.57 ± 0.58,,,3.86 ± 0.6,,,5.76 ± 0.6,2920 ± 60,,,,,,,,
Oc1ccc(/C=C/c2cc(O)cc(O)c2)cc1 [resveratrol],,,,,,,,,,0.09,,,,,,,
CCCCc1nc2c(N)nc3ccccc3c2n1CC(C)C [compound 1],5.4 ± 0.79,3.4 ± 0.79,,,7.54 ± 0.6,,,9.54 ± 0.6,3200 ± 60,,15000 ± 30,,,,,,
CCCCNC(=O)c1ccc(Cn2c(CCCC)nc3c(N)nc4ccccc4c32)cc1 [compound 3],7.86 ± 0.7,5.8 ± 0.4,,,7.46 ± 0.5,,,10.9 ± 0.2,350 ± 60,,,,,,,,
"CCOCc1nc2c(N)nc3ccccc3c2n1CC(C)(C)O [Resiquimod, reference compound]",4.46 ± 0.66,3.46 ± 0.1,,11.5,9 ± 0.6,,,7.46 ± 0.5,[…],,3500 ± 90,25.0 ± 0.8,,71%,457 ± 1.9,9,11.46 ± 0.5

# The next lines start with results.
IC50 [1] [µg/mL],IC50 [2] [µg/mL],Compound,IC50 (L. infantum) [nM],"CC50 at 48 h [3, 10] [µg/mL]","CC50 at 48 h [3, 11] [µg/mL]",TLR8 EC50 (TLR8),TLL7 EC50 (TLR7),"CC50 at 48 h [4, 12] [µg/mL]",EC50 (TLR7) [nM],IC50 against Leishmania in peritoneal macrophages [5] [µg/mL],EC50 (TLR8) [nM],NO production (RAW 264.7 macrophages [6]) [µM],NO production in unstimulated macrophages (RAW 264.7 macrophages [6]),percentage of parasites in sub-G0/G1 phase [7],"ROS, mean fluorescence intensity (MFI) [8]","CC50 at 48 h [4, 13] [µg/mL]",RAW macrophage CC50 (RAW 264.7 macrophages [9]) [µg/mL]
3.1 ± 0.9,2.21 ± 0.6,CCCCc1nc2c(N)nc3ccccc3c2n1Cc1cccc(CNC(=O)OC(C)(C)C)c1 [compound 8],,8.8,8.86 ± 0.5,Active,Active,9.5 ± 1,,,,,,,,,
7.4 ± 0.52,6.5 ± 0.4,CCCCc1nc2c(N)nc3ccccc3c2n1Cc1ccc(CO)cc1 [compound 4],,,4.75 ± 0.2,,,6.75 ± 0.2,220 ± 20,,,,,,,,
7.06 ± 0.3,5.1 ± 0.26,CCCCc1nc2c(N)nc3ccccc3c2n1Cc1ccc(C(N)=O)cc1 [compound 6],,,4.55 ± 0.5,,,6.7 ± 0.4,320 ± 30,,18200 ± 430,,,,,,
3.29 ± 0.61,2.28 ± 0.62,CCCCc1nc2c(N)nc3ccccc3c2n1Cc1ccc(O)c(O)c1 [compound 5],,,32.5 ± 0.5,,,34.4 ± 0.5,150 ± 60,,2750 ± 70,39 ± 1,moderate NO production,80% ± 1.2%,"1,002.0 ± 1.52",,
6.46 ± 0.47,4.53 ± 0.58,CCCCc1nc2c(N)nc3ccccc3c2n1Cc1cccc(CN)c1 [compound 9],,,4.67 ± 0.3,,,6.67 ± 0.3,[…],,[…],,,,,,
3 ± 0.36,2.33 ± 0.4,CCCCc1nc2c(N)nc3ccccc3c2n1Cc1ccc(CN)cc1 [compound 10],,21.4,29.4 ± 1.6,,,30.4 ± 1.6,[…],,[…],42 ± 1,moderate NO production,75.7% ± 1.25%,935 ± 1,25.4,
5.16 ± 0.79,3.82 ± 0.39,CCCCc1nc2c(N)nc3ccccc3c2n1Cc1ccc(CNC(=O)OC(C)(C)C)cc1 [compound 7],,,4.28 ± 0.2,Active,Active,6.28 ± 0.2,,,,,,,,,
6.6 ± 0.4,4.63 ± 0.45,CCCCn1cc2c(n1)c(N)nc1ccccc12 [compound 11],,4.88,4.67 ± 0.2,,,6.69 ± 0.22,190,,56,,,,,,6.67 ± 0.2
